What was measured:
[1] = Stability of ^166Ho-DOTMP with and without stabilizer: radiochemical purity by ITLC, CEC, HPLC (Example 15); type: physicochemical
Protocol: Samples of ^166Ho-DOTMP were prepared according to the procedure in Example 1 using ascorbic acid, 55 mg/mL, as the stabilizer. Identical samples were prepared without ascorbic acid. The solutions were analyzed for radiochemical purity after 1 hour, 6 hours, 10 hours, 24 hours, and 48 hours, using Instant Thin Layer Chromatography (ILTC), Cation Exchange Chromatography (CEC) and High Performance Liquid Chromatography (HPLC).

[2] = Biodistribution study of ^166Ho-DOTMP in rats (Example 16); type: in vivo, Sprague Dawley rats; details: rat, i.v.
Protocol: Sprague Dawley (S. D.) rats were injected intravenously (inj. i.v.) with a solution of ^166Ho-DOTMP (“Ho-DO”) containing ascorbic acid (asc) as a stabilizer. The animals were sacrificed and organs excised and counted in a radioactive well counter after decay to appropriate levels. Bone (femur) samples were counted and converted to a total bone percent injected dose using a factor of 25 times femur percent.
A second group of Sprague Dawley rats were injected intravenously with a solution of ^166Ho-DOTMP without having the stabilizer. The animals were sacrificed and organs excised and counted in a radioactive well counter after decay to appropriate levels. Bone (femur) samples were counted and converted to a total bone percent injected dose using a factor of 25 times femur percent.
FIG. 2 illustrates the data uptake base on the % injection dose. FIG. 3 illustrates the data uptake base on the % injection dose per gram(mass). FIG. 4 illustrates the data uptake base on the tissue/blood ratio. Abbreviations: Blo=blood; Tai=tail; Lun=lung; Liv=liver; Spl=spleen; Sto=stomach; Kid=kidneys; Int=intestines; Bon=bone; SD=standard deviation.

multiple myeloma [3] = test: Single patient: 40 Gy ^153Sm-EDTMP, melphalan 200 mg/m^2 (Example 14); type: in vivo, human; details: present tense
Protocol: The patient, a person with an original diagnosis of multiple myeloma and diagnosed with primary refractory disease, is given a trace dose of ^153Sm-EDTMP, and the 24 hr whole body uptake is calculated. Based on dosimetry calculations a therapeutic dose is designed to deliver 40 Gy to the marrow. After the level of ^153Sm in the patient fell to ≦3.6 mCi, the patient receives a dose of 200 mg/m^2 of melphalan (I.V.). The patient's stem cells are reinfused two days after the melphalan, with G-CSF and antibiotics, as needed.

[4] = ^153Sm-EDTMP 30-50 Gy with melphalan up to 200 mg/m^2, response and urinary tract side effects; type: in vivo; details: 30-50 Gy with melphalan as high as 200 mg/m^2
[5] = system: rats inoculated with murine myeloma cells; details: used with melphalan, followed by bone marrow transplant; cited from earlier work
multiple myeloma [6] = details: 140 mg/m^2 of body-surface area intravenously; cited from earlier work
[7] = 40 Gy to marrow, melphalan 200 mg/m^2, one patient

O=P([O-])(O)CN1CCN(CP(=O)([O-])O)CCN(CP(=O)(O)O)CCN(CP(=O)([O-])O)CC1.[166Ho+3] [Ho-DO only]
radiochemical purity, CEC ([1]; 1 hr): 99.0 | radiochemical purity, HPLC ([1]; 1 hr): 100 | radiochemical purity, ITLC ([1]; 1 hr): 99.2 | radiochemical purity, CEC ([1]; 6 hrs): 97.8 | radiochemical purity, HPLC ([1]; 6 hrs): 95.4 | radiochemical purity, ITLC ([1]; 6 hrs): 98.1 | radiochemical purity, CEC ([1]; 10 hrs): 97.8 | radiochemical purity, HPLC ([1]; 10 hrs): 94.9 | radiochemical purity, ITLC ([1]; 10 hrs): 97.5 | radiochemical purity, CEC ([1]; 24 hrs): 97.2 | radiochemical purity, HPLC ([1]; 24 hrs): 85.8 | radiochemical purity, ITLC ([1]; 24 hrs): 97.6 | radiochemical purity, CEC ([1]; 48 hrs): 97.1 | radiochemical purity, ITLC ([1]; 48 hrs): 96.5 | Percent Injection Dose, Blood [2]: 0.29 Percent Injection Dose | Percent Injection Dose, Intestine [2]: 3.81 Percent Injection Dose | Percent Injection Dose, Kidney [2]: 0.72 Percent Injection Dose | Percent Injection Dose, Liver [2]: 2.40 Percent Injection Dose | Percent Injection Dose, Lung [2]: 0.00 Percent Injection Dose | Percent Injection Dose, Spleen [2]: 0.56 Percent Injection Dose | Percent Injection Dose, Stomach [2]: 0.20 Percent Injection Dose | Percent Injection Dose, Tail [2]: 3.21 Percent Injection Dose | Percent Injection Dose/Gram, Blood [2]: 0.02 Percent Injection Dose/Gram | Percent Injection Dose/Gram, Intestine [2]: 0.23 Percent Injection Dose/Gram | Percent Injection Dose/Gram, Kidney [2]: 0.38 Percent Injection Dose/Gram | Percent Injection Dose/Gram, Liver [2]: 0.31 Percent Injection Dose/Gram | Percent Injection Dose/Gram, Lung [2]: 0.04 Percent Injection Dose/Gram | Percent Injection Dose/Gram, Spleen [2]: 1.03 Percent Injection Dose/Gram | Percent Injection Dose/Gram, Stomach [2]: 0.05 Percent Injection Dose/Gram | Percent Injection Dose/Gram, Tail [2]: 0.51 Percent Injection Dose/Gram | Tissue/Blood Ratio, Blood [2]: 1.00 | Tissue/Blood Ratio, Bone [2]: 296.80 | Tissue/Blood Ratio, Intestine [2]: 13.80 | Tissue/Blood Ratio, Kidney [2]: 22.84 | Tissue/Blood Ratio, Liver [2]: 18.90 | Tissue/Blood Ratio, Lung [2]: 2.34 | Tissue/Blood Ratio, Spleen [2]: 62.09 | Tissue/Blood Ratio, Stomach [2]: 3.24 | Tissue/Blood Ratio, Tail [2]: 31.33 | Percent Injection Dose/Gram, Bone ([2]; femur): 4.84 Percent Injection Dose/Gram | Percent Injection Dose, Bone ([2]; total bone = 25 times femur percent): 50.05 Percent Injection Dose

O=P([O-])(O)CN(CCN(CP(=O)([O-])O)CP(=O)(O)O)CP(=O)([O-])O.[153Sm+3] [^153Sm-EDTMP]
days post stem cell transplant to neutrophil engraftment (ANC >500) (multiple myeloma [3]; [7]): Fourteen | days post transplant to platelet engraftment (>20,000) (multiple myeloma [3]; [7]): twenty | response (multiple myeloma [3]; five months post treatment, one patient): complete remission | total response rates [4]: > 90% | urinary tract side effects [4]: without significant urinary tract side effects | survival [5]: improves survival

N[C@@H](Cc1ccc(N(CCCl)CCCl)cc1)C(=O)O [melphalan, L-phenylalanine, 4-[bis(2-chloroethyl)amino]-]
patients with partial or complete remissions (multiple myeloma [6]): about 40%
